Where two headings read alike, the source gives them in different places.
Tests used:
SHP2 [1] = target: T1, SHP2 (Homo sapiens, UniProt Q06124); details: read-out: SHP2 IC50; cited from earlier work
SHP2 [2] = target: T2, SHP2 (Mus musculus, UniProt P35235); experiment: SHP2 degradation in Prg4+ articular cartilage cells (Western blot); format: cell-based, murine; details: chondrocytes, a week after withdrawal
T2 construct: endogenous in cells; host or cells: Prg4+ murine articular cartilage (AC) cells
T2 sequence (P35235 whole entry): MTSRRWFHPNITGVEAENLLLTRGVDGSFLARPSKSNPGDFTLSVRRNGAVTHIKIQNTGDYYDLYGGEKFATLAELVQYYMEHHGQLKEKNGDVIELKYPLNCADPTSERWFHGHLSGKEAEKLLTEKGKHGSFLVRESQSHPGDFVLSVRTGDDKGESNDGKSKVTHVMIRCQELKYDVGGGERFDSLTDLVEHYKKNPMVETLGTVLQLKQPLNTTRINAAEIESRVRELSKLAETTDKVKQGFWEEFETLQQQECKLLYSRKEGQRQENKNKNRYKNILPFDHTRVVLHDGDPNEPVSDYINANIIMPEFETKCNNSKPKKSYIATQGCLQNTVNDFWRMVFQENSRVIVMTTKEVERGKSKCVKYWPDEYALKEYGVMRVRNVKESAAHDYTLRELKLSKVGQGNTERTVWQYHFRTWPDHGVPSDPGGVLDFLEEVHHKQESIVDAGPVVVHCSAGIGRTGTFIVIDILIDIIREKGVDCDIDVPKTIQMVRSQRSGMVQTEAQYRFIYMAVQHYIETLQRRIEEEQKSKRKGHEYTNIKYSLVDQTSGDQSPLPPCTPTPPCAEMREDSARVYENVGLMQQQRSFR

[3] = tested on: murine articular cartilage cells; experiment: Cell viability (WST1) of articular cartilage cells; format: cell-based; details: concentrations as high as 1 μM, 48 hrs, WST1, n=3
Method: With respect to toxicity, murine articular cartilage cells were treated with indicated concentration of SHP2D26 for 48 hrs. Cell viabilities were measured using WST1 (n=3).

SHP2 [4] = target: T1, SHP2; design: host or cells: esophageal cancer cells (endogenous SHP2); details: cited from earlier work

T1 sequence (Q06124 whole entry): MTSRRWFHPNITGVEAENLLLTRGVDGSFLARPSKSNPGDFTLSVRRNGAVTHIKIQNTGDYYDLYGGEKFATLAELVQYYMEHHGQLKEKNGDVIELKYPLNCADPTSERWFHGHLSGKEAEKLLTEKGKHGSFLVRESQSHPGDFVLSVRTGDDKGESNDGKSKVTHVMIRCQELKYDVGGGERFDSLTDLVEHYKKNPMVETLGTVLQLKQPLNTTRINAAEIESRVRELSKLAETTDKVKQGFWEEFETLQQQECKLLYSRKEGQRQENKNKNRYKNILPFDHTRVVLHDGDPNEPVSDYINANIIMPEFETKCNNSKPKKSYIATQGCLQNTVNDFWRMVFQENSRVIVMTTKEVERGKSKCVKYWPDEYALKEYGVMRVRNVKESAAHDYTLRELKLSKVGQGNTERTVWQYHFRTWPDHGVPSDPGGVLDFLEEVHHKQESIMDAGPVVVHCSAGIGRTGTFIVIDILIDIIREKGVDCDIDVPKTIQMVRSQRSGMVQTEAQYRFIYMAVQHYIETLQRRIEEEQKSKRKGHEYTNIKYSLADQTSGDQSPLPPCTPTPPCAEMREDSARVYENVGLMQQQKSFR

## C[C@@H]1OCC2(CCN(c3nc4[nH]nc(-c5ccnc(NC6CC6)c5Cl)c4c(=O)n3C)CC2)[C@@H]1N [SHP389, 6-((3S,4S)-4-Amino-3-methyl-2-oxa-8-azaspiro[4.5]decan-8-yl)-3-(3-chloro-2-(cyclopropylamino)pyridin-4-yl)-5-methyl-2,5-dihydro-4H-pyrazolo[3,4-d]pyrimidin-4-one]
SHP2 [1]
  IC50: 36000 nM

## O=c1c2ccccc2n2c(-c3ccccc3O)nnc2n1Cc1ccccc1Cl [SHP357]
SHP2 [1]
  IC50: > 100000 nM

## O=C1/C(=N\Nc2ccc(S(=O)(=O)O)cc2)C(c2ccc([N+](=O)[O-])cc2)=NN1c1ccc([N+](=O)[O-])cc1 [GS-493, 4-((2 Z)-2-(1,3-bis (4-Nitrophenyl)-5-oxo-1,5-dihydro-4H-pyrazol-4-yliden)hydrazino) benzenesulfonic acid, (Z)-4-(2-(1,3-bis(4-Nitrophenyl)-5-oxo-1H-pyrazol-4(5H)-ylidene)hydrazinyl)benzenesulfonic acid]
SHP2 [1]
  IC50: 71000 nM

## Cc1ncsc1-c1ccc([C@H](C)NC(=O)[C@@H]2C[C@@H](O)CN2C(=O)[C@@H](NC(=O)CCCCCCCCN2CCN(C(=O)CCC(=O)Nc3cccc(Sc4ncc(N5CCC(C)(N)CC5)nc4N)c3Cl)CC2)C(C)(C)C)cc1 [SHP-D26, (2S,4R)-1-((S)-2-(9-(4-(4-((3-((3-amino-5-(4-amino-4-methylpiperidin-1-yl)pyrazin-2-yl)thio)-2-chlorophenyl)amino)-4-oxobutanoyl)piperazin-1-yl)nonanamido)-3,3-dimethylbutanoyl)-4-hydroxy-N-((S)-1-(4-(4-methylthiazol-5-yl)phenyl)ethyl)pyrrolidine-2-carboxamide]
SHP2 [2]
  SHP2 recovered after complete withdrawal of compound from culture medium: about 50%
[3]
  cell viability: did not compromise cell viability
SHP2 [4]; acute myeloid leukemia MV4, 11 cells, read-out: DC50
  DC50: 2.6 nM
SHP2 [4]; esophageal cancer KYSE520 cells, read-out: DC50
  DC50: 6 nM
SHP2 [4]; range over the cancer cell lines, read-out: SHP2 DC50
  DC50: 2.6 to 6 nM
